For one assay, the target named is T1, wildtype AR (Homo sapiens, UniProt P10275).
T1 construct: The AR WT construct expresses full-length human AR under cmv promoter control; expressed in transfected cells; host or cells: COS7
T1 sequence (P10275 1-920): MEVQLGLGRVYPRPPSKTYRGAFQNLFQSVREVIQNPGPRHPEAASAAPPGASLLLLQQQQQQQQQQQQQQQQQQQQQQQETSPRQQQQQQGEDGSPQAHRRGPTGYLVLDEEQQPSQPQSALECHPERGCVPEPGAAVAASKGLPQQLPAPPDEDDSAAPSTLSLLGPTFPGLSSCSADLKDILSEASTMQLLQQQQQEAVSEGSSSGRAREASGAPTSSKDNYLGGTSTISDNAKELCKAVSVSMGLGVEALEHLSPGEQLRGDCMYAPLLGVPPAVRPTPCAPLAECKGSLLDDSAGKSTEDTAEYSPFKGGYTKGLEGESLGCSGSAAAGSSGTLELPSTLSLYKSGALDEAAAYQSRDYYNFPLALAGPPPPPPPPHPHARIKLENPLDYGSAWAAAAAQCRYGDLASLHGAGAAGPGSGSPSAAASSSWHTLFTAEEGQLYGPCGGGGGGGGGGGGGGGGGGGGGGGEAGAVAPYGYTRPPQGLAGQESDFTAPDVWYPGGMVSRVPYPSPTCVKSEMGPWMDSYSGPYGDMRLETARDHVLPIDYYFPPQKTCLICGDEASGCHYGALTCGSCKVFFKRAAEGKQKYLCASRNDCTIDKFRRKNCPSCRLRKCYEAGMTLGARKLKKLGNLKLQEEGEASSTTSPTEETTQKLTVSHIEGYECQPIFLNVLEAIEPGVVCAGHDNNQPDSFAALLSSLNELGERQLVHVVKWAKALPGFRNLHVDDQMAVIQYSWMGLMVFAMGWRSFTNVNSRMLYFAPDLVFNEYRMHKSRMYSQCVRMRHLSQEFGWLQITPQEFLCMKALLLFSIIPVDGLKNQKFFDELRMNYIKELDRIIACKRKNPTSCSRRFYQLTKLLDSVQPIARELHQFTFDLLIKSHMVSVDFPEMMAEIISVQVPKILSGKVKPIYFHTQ
In words: AR-responsive firefly luciferase reporter assay in COS7 cells transfected with AR (DHT-stimulated AR activity). The class given is cell-based. Conditions: for inhibition at 12.5 µM: COS-7, 24 h, read-out: % Angtag (12.5 μM vs. 1 nM DHT). From the text:
FIG. 13. Antagonist activity of generation 4 compounds at 25 micromolar. […] Reporter firefly luciferase is corrected for control Renilla activity.
FIG. 14. Antagonist activity of generation 4 compounds at 1-10 micromolar. […] Reporter firefly luciferase is corrected for control Renilla activity. […]
(§1) The AR-responsive firefly luciferase reporter consists of 4 tandem repeats of the consensus steroid response element cloned upstream of the pGL3-Basic Luciferase vector (Promega). The AR WT construct expresses full-length human AR under cmv promoter control.
(§2) Luciferase activity was determined using the Dual-Luciferase Reporter Assay System (Promega E1910).
Background: In a reporter assay the amount or activity of a reporter protein is the signal.

Assay [1] addresses T2, AR in VCaP cells (Homo sapiens, UniProt P10275).
T2 construct: endogenous in cells; host or cells: VCaP
T2 sequence (P10275 1-920): T1 sequence (P10275 1-920)
Put plainly: Immunofluorescence of AR nuclear localization in VCaP cells (CSS medium). It counts as cell-based. From the text:
VCaP cells, derived from a CRPC vertebral metastasis, express substantial levels of AR and AR regulated genes such as PSA even when cultured in steroid depleted medium. […] In additional studies focused on chemotype A compounds, we used immunofluorescence to assess AR nuclear localization.

Assay [2] concerns the target T2, AR in VCaP cells. In words: Nuclear AR, total AR protein and PSA expression in VCaP cells in steroid depleted medium. It counts as cell-based. From the text: VCaP cells, derived from a CRPC vertebral metastasis, express substantial levels of AR and AR regulated genes such as PSA even when cultured in steroid depleted medium. […] In additional studies focused on chemotype A compounds, we used immunofluorescence to assess AR nuclear localization. […] In contrast, and consistent with the biochemical fractionation studies noted above, basal nuclear AR was decreased by A61.
We used the NE-PER Nuclear and Cytoplasmic Extraction Reagents (Pierce 78833).

In the next assay the target is T3, AR in C4-2 cells (Homo sapiens, UniProt P10275, T878A).
T3 sequence (P10275 1-920 T878A): T1 sequence (P10275 1-920) with T878A

A further assay addresses VP16-AR (Homo sapiens, UniProt P10275).
In the next assay the target is T4, T877A mutant AR (Homo sapiens, UniProt P10275, T878A).
T4 sequence (P10275 1-920 T878A): T1 sequence (P10275 1-920) with T878A
Put plainly: T877A mutant AR luciferase reporter assay. Conditions: HF 100 nM; chemotype A compounds 10 μM. It counts as cell-based. The protocol: FIG. 6. […] (f) W741C mutant AR response to Bic (10 μM), HF (100 nM), and chemotype A compounds (10 μM). Error bars represent S.E.M.
To further validate the predicted positioning of the compounds in the steroid binding pocket, we also examined the effects of established mutations within the LBD.
as §1, §2

Setting [3] is: steroid depleted medium, data not shown.

Where a chain is given by its changes, count along the chain named. Entries after “also recorded” stand apart in the source; their conditions may differ.

`O=C(CBr)Nc1ccc(S(=O)(=O)NCc2ccc3c(c2)OCO3)cc1` [Compound 13, N-(4-(N-(Benzo[d][1,3]dioxol-5-ylmethyl)sulfamoyl)phenyl) bromoacetamide]: the inhibition at 12.5 µM on wildtype AR is 70%.

Turning to `O=C(CCl)Nc1ccc(S(=O)(=O)NCc2ccc3c(c2)OCO3)cc1` [Compound 14, N-(4-(N-(Benzo[d][1,3]dioxol-5-ylmethyl)sulfamoyl)phenyl)chloroacetamide], the inhibition at 12.5 µM at wildtype AR worked out at 90%.

With `CC(=O)N(C(C)=O)c1ccc(S(=O)(=O)NCc2ccc3c(c2)OCO3)cc1` [Compound 15, N-acetyl-N-(4-(N-(Benzo[d][1,3]dioxol-5-ylmethyl)sulfamoyl)phenyl) acetamide], the “% Angtag (12.5 μM vs. 1 nM DHT)” value at wildtype AR (12.5 μM compound vs. 1 nM DHT) is on record as 85%.

In the case of `O=C(CBr)Nc1cccc(S(=O)(=O)NCc2ccc3c(c2)OCO3)c1` [Compound 17, N-(3-(N-(Benzo[d][1,3]dioxol-5-ylmethyl)sulfamoyl)phenyl)-2-bromoacetamide], the inhibition at 12.5 µM on wildtype AR was determined as 20%.

In the case of `O=C(Nc1ccc(S(=O)(=O)NCc2ccc3c(c2)OCO3)cc1)C(F)(F)F` [Compound 20, N-(4-(N-(Benzo[d][1,3]-dioxol-5-ylmethyl)sulfamoyl)phenyl)-2,2,2-trifluoroacetamide], at wildtype AR, the inhibition at 12.5 µM came to 0%.

For `CS(=O)(=O)Nc1ccc(S(=O)(=O)NCc2ccc3c(c2)OCO3)cc1` [Compound 21, N-(benzo[d][1,3]dioxol-5-ylmethyl)-4-(methylsulfonamido)benzenesulfonamide], the inhibition at 12.5 µM at wildtype AR was determined as 70%.

Take `CC(C)(C)CC(=O)Nc1ccc(S(=O)(=O)NCc2ccc3c(c2)OCO3)cc1` [Compound 22, N-(4-(N-(Benzo[d][1,3]dioxol-5-ylmethyl)sulfamoyl)phenyl)-3,3-dimethylbutanamide]: the inhibition at 12.5 µM at wildtype AR came out at 70%.

As for `O=S(=O)(NCc1ccc2c(c1)OCO2)c1ccc(C(F)(F)F)c(N=C=S)c1` [Compound 23, N-(benzo[d][1,3]dioxol-5-ylmethyl)-3-isothiocyanato-4-(trifluoromethyl)benzenesulfonamide], the inhibition at 12.5 µM at wildtype AR was found to be 75%.

With `CC(=O)c1ccc(S(=O)(=O)NCc2ccc3c(c2)OCO3)cc1OC(F)(F)F` [Compound 25, 4-acetyl-N-(benzo[d][1,3]dioxol-5-ylmethyl)-3-(trifluoromethoxy)benzenesulfonamide], the inhibition at 12.5 µM at wildtype AR amounted to 50%.

As to `CCC(=O)c1cc(S(=O)(=O)NCc2ccc3c(c2)OCO3)ccc1OC(F)(F)F` [Compound 29, N-(benzo[d][1,3]dioxol-5-ylmethyl)-3-propionyl-4-(trifluoromethoxy)benzenesulfonamide], the inhibition at 12.5 µM on wildtype AR turned out to be 60%.

As to `NC(=O)c1cc(S(=O)(=O)NCc2ccc3c(c2)OCO3)ccc1OC(F)(F)F` [Compound 30, 5-(N-(benzo[d][1,3]dioxol-5-ylmethyl)sulfamoyl)-2-(trifluoromethoxy)benzamide], at wildtype AR, the inhibition at 12.5 µM is 20%.

Regarding `CS(=O)(=O)c1cc(S(=O)(=O)NCc2ccc3c(c2)OCO3)ccc1OC(F)(F)F` [Compound 31, N-(benzo[d][1,3]dioxol-5-ylmethyl)-3-(methylsulfonyl)-4-(trifluoromethoxy)benzenesulfonamide], the inhibition at 12.5 µM on wildtype AR is 85%.

As for `CC(=O)c1ccc(S(=O)(=O)NCc2ccc3c(c2)OCO3)cc1C(F)(F)F` [Compound 32, 4-acetyl-N-(benzo[d][1,3]dioxol-5-ylmethyl)-3-(trifluoromethyl)benzenesulfonamide], at wildtype AR, the inhibition at 12.5 µM came to 50%.

As to `CCC(=O)c1ccc(S(=O)(=O)NCc2ccc3c(c2)OCO3)cc1C(F)(F)F` [Compound 33, N-(benzo[d][1,3]dioxol-5-ylmethyl)-4-propionyl-3-(trifluoromethyl)benzenesulfonamide], the inhibition at 12.5 µM at wildtype AR is 20%.

Consider `O=S(=O)(NCc1ccc2c(c1)OCO2)c1ccc(F)cc1F` [Compound A61, N-(1,3-benzodioxol-5-ylmethyl)-2,4-difluorobenzenesulfonamide], for which the “nuclear AR levels by immunofluorescence” value on AR in VCaP cells [1] is reported as “decreased”. Further, at AR in VCaP cells [2] (10 μM, steroid depleted medium), the “basal level PSA expression” value is given as “further decreasing basal level PSA expression” and the “nuclear AR” value is listed as “significantly decreased nuclear AR”. In addition, the “DHT stimulated PSA expression” value at AR in VCaP cells [2] (not shown) is reported as “blocking DHT stimulated PSA expression”. Moreover, the “potency in antagonizing AR activity in luciferase reporter assays” value at wildtype AR (relative to initial chemotype A compounds, data not shown) is on record as “increased potency; also recorded: relatively higher potency”. Further, on AR in C4-2 cells (24 hours (FIG. 10a)), the “basal PSA” value is given as “decrease in basal PSA” and the “total AR protein levels” value was “noteworthy decrease”. For the same compound, on AR in C4-2 cells (setting [3]), the PSA expression entry is reported as “reduced” and the “nuclear AR levels” value is reported as “reduced nuclear AR levels”.

Turning to `CC(C)(O)C(=O)Nc1ccc([N+](=O)[O-])c(C(F)(F)F)c1` [hydroxyflutamide], the “VP16-AR reporter (transcriptional) activity” value on VP16-AR is listed as “strong reporter activity”. Besides, the “agonist activity on T877A mutant AR” value at T877A mutant AR is “strong agonist”.

The values are drawn from US20140088187A1, “ANDROGEN RECEPTOR INHIBITORS AND METHODS OF USE THEREOF” (BETH ISRAEL DEACONESS MEDICAL CENTER, priority 2010, published 2014).
